Measurements as given in US6723897B2, “Methods for controlling gibberellin levels” (Monsanto Technology, LLC, priority 1998, dated 2004).

Assays:
[1] = system: wild-type soybean line A3237; assay: Experiment I greenhouse test, seed imbibition, wild-type soybean; conditions: 0.25 mg/ml; seeds imbibed 5 hours
Protocol: Compounds are first prepared as 25 mg/ml solutions in ethanol as described above, and then diluted into 40 ml of water to prepare the final 0.25 mg/ml treatment solutions. Visual observations on solubilities (milky, clear, etc.) of the treatment solutions are noted. The treatment solutions are divided into two 20 ml portions, each in 50 ml plastic centrifuge tubes. In addition to treating seeds with solutions containing the test compounds, untreated seeds and seeds imbibed in ethanol-water solution (300 μl ethanol in 30 mls of water) are also included in this experiment as controls. […]
(§1) After imbibition, seeds are removed from the test tubes, placed on wax paper to dry, and planted in bread pans containing farm soil amended with fertilizer at 20 seeds/pan. Seeds are covered with 0.5″ of vermiculite. Pans are transferred to the greenhouse, which had day/night temperatures of 86/68° F. (30/20° C.), and subirrigated. Illumination is at a light intensity of 300-400 μmolm^−2s^−1 photosynthetic photon flux; 16 hours light/8 hours dark. Subsequent waterings are also through sub-irrigation until the test is terminated three weeks later. Observations included the number of dwarf, intermediate, and tall plants; plant height; uniformity of rescue; and any visual effects.

[2] = system: constitutively GA-deficient transgenic dwarf soybeans (line 719); assay: Summary of first two greenhouse experiments, rescue of GA-deficient soybeans; format: in vivo, Glycine max; design: key: +: transgenic soybeans are rescued; 0: transgenic soybeans are not rescued
Protocol: Compounds are first prepared as 25 mg/ml solutions in ethanol as described above, and then diluted into 40 ml of water to prepare the final 0.25 mg/ml treatment solutions. Visual observations on solubilities (milky, clear, etc.) of the treatment solutions are noted. The treatment solutions are divided into two 20 ml portions, each in 50 ml plastic centrifuge tubes. In addition to treating seeds with solutions containing the test compounds, untreated seeds and seeds imbibed in ethanol-water solution (300 μl ethanol in 30 mls of water) are also included in this experiment as controls. In the latter case, 20 seeds are imbibed in 30 mls of solution for six hours.
as §1, with “Two soybean varieties are selected for testing: constitutively GA-deficient transgenic dwarf soybean line 719 (plasmid pMON29801, constitutive FMV promoter/asCPScc; which is a mixture of 719−2 and 719+17), and A3237, the wild-type parent material. […] After” for “After”
All compounds are tested at final concentrations of 0.25, 0.025, and 0.0025 mg/ml except for GA9, which is tested at 0.125, 0.0125, and 0.00125 mg/ml. (The compounds are tested in Experiment I at only one concentration, i.e., 0.25 mg/ml). Test tubes contained […] of ethanol solution per tube. Final volumes are made up to 30 ml with deionized water. After shaking, the treatment solutions (15 ml each) are transferred to each of two 50 ml test tubes. Treatments 1 to 27 are performed on wild-type line A3237; treatments 28 to 54 are performed on constitutively GA-deficient transgenic dwarf soybean line 719 (a mixture of 719−2 and 719+17). Twenty seeds are used in each treatment. Dry seed, ethanol/water-imbibed seed (1% ethanol in water, v/v), and water-imbibed seeds are included as controls. Seeds are imbibed for 6 hours in the test solutions, then planted in bread pans containing Metromix 350 (The Scotts Company, Marysville, Ohio), and covered with 0.5″ Metro-mix. Covered pans are transferred to the greenhouse and subirrigated. Illumination is at a light intensity of 300-400 μmolm^−2s^−1 photosynthetic photon flux; 16 hours light/8 hours dark. Subsequent waterings are also through sub-irrigation until the test is terminated three weeks later. Observations included the number of dwarf, intermediate, and tall plants; plant height; uniformity of rescue; and any visual effects. Digital photographs are also taken.

[3] = system: constitutively GA-deficient transgenic dwarf soybean line 719; assay: Experiment IV field test, seed imbibition, compacted soil; format: in vivo, Glycine max; conditions: for No. of Dwarfs Not Rescued / Total Plants: imbibed 8 hours; for Total Plants: 25 seeds planted; for % of Dwarfs Rescued: relative to 8.5 true dwarfs per plot; for field result on line 719 in words: over the rates tested (0.0025-0.25 mg/ml)
Description: The objective of these experiments is to determine if there is a greenhouse to field translation of results with selected GA compounds with respect to rescue of constitutively GA-deficient transgenic dwarf soybeans and elongation of wild-type plants. […] For the first field trial, the solutions previously used for the second greenhouse test, and stored in the freezer, are employed. […] For comparison, freshly prepared solutions of GA3 are also employed. The compounds tested included kaurenoic acid, fresh GA3, stored GA3, GA3-3-acetate, GA5, GA9, and GA12. […] Seeds of line […] are imbibed for 8 hours. Untreated dry seeds served as controls. After imbibition, the remaining solutions are returned to the freezer. Seeds are kept on the benchtop at room temperature overnight. […] Untreated dry seeds served as controls. Following planting line 719, all plots (both […] and line 719) are compacted by driving an all-terrain vehicle over the planted rows twice, and watered. All GA solutions are discarded. The results are shown in Table 15 for constitutively GA-deficient transgenic dwarf line 719 only as insufficient […] germinated to make any useful observations. Observations included number of plants that germinated, number rescued, and visual observations. Two points should be noted concerning the data in Table 15. […] Next, the number of dwarfs not rescued in any treatment is subtracted from 8.5.

[4] = 0.0025 mg/ml solution (ethanol-water)
[5] = 0.025 mg/ml solution (ethanol-water)
[6] = 0.25 mg/ml solution (ethanol-water)

Row | Compound | Observation on Wild-Type Line A3237 [1] | Rescue of GA-deficient soybeans [2, 4] | Rescue of GA-deficient soybeans [2, 5] | Rescue of GA-deficient soybeans [2, 6] | field result on line 719 in words [3] | No. of Dwarfs Not Rescued ([3]; stored solution 0.0025 mg/ml) | Total Plants ([3]; stored solution 0.0025 mg/ml) | % of Dwarfs Rescued ([3]; stored solution 0.0025 mg/ml) [%] | No. of Dwarfs Not Rescued ([3]; stored solution 0.025 mg/ml) | Total Plants ([3]; stored solution 0.025 mg/ml) | % of Dwarfs Rescued ([3]; stored solution 0.025 mg/ml) [%] | Visual Observations on Transgenic Line 719 ([3]; stored solution 0.25 mg/ml) | No. of Dwarfs Not Rescued ([3]; stored solution 0.25 mg/ml) | Total Plants ([3]; stored solution 0.25 mg/ml) | % of Dwarfs Rescued ([3]; stored solution 0.25 mg/ml) [%] | other results
1 | C=C1C[C@]23C[C@@]1(O)CC[C@H]2[C@@]12C=C[C@H](O)[C@@](C)(C(=O)O1)[C@H]2[C@@H]3C(=O)O [GA3, gibberellic acid] | 3 | + | + | + | poor emergence at all rates | 0 | 14 | 100 | 0 | 9 | 100 | Extremely elongated plants | 0 | 7 | 100 | No. of Dwarfs Not Rescued ([3]; fresh solution 0.0025 mg/ml): 0; Total Plants ([3]; fresh solution 0.0025 mg/ml): 13; % of Dwarfs Rescued ([3]; fresh solution 0.0025 mg/ml): 100%; No. of Dwarfs Not Rescued ([3]; fresh solution 0.025 mg/ml): 1; Total Plants ([3]; fresh solution 0.025 mg/ml): 13; % of Dwarfs Rescued ([3]; fresh solution 0.025 mg/ml): 88.2%; No. of Dwarfs Not Rescued ([3]; fresh solution 0.25 mg/ml): 0; Total Plants ([3]; fresh solution 0.25 mg/ml): 1; % of Dwarfs Rescued ([3]; fresh solution 0.25 mg/ml): 100%; Visual Observations on Transgenic Line 719 ([3]; stored solution 0.025 mg/ml): Extremely elongated plants
2 | C=C1C[C@]23C[C@@]1(O)CC[C@H]2[C@@]12C=C[C@H](OC(C)=O)[C@@](C)(C(=O)O1)[C@H]2[C@@H]3C(=O)O [GA3-3-acetate] | 3 | + | + | + | excessive elongation, and no uniformity in plant height | 0 | 21 | 100 | 0 | 1 | 100 | Extremely elongated plants | 0 | 3 | 100 | 
3 | C=C1C[C@]23C[C@@]1(O)CC[C@H]2[C@@]12CC=C[C@@](C)(C(=O)O1)[C@H]2[C@@H]3C(=O)O [GA5] | 4 | + | + | + | slight to excessive elongation, and no uniformity in plant height | 8 | 25 | 5.9 | 0 | 20 | 100 | Extremely elongated plants | 0 | 7 | 100 | 
4 | C=C1C[C@]23C[C@H]1CC[C@H]2[C@@]12CCC[C@@](C)(C(=O)O1)[C@H]2[C@@H]3C(=O)O [GA9] | 3 |  |  | + | slight elongation, and no uniformity in height | 7 | 20 | 17.6 | 0 | 22 | 100 | Slightly elongated plants | 0 | 17 | 100 | Rescue of GA-deficient soybeans ([2]; 0.00125 mg/ml solution (ethanol-water)): 0; Rescue of GA-deficient soybeans ([2]; 0.0125 mg/ml solution (ethanol-water)): +; Rescue of GA-deficient soybeans ([2]; 0.125 mg/ml solution (ethanol-water)): +
5 | C=C1C[C@]23C[C@H]1CC[C@H]2[C@]1(C)CCC[C@@](C)(C(=O)O)[C@H]1[C@@H]3C(=O)O [GA12] | −1 | 0 | + | + | good emergence | 5 | 20 | 41.2 | 4 | 22 | 52.9 |  | 0 | 20 | 100 | 
6 | C=C1C[C@@]23CC[C@H]4[C@@](C)(CCC[C@@]4(C)C(=O)O)[C@@H]2CC[C@@H]1C3 [kaurenoic acid] | 0 | 0 | 0 |  | poor uniformity in plant height | 5 | 23 | 41.2 | 4 | 17 | 52.9 |  | 6 | 22 | 29.4 | 
